Reference: ChEMBL document CHEMBL1909046, “DrugMatrix in vitro pharmacology data”

What was measured:
[1] = molecular target: T1, Nitric oxide synthase, inducible (Mus musculus, UniProt P29477); set-up: species or system Escherichia coli;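 note: inhibition of iNOS enzyme activity measured with L-arginine as substrate; in other assays of this panel Not Active means under 50% inhibition at 10 µM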
T1 sequence (P29477 whole entry): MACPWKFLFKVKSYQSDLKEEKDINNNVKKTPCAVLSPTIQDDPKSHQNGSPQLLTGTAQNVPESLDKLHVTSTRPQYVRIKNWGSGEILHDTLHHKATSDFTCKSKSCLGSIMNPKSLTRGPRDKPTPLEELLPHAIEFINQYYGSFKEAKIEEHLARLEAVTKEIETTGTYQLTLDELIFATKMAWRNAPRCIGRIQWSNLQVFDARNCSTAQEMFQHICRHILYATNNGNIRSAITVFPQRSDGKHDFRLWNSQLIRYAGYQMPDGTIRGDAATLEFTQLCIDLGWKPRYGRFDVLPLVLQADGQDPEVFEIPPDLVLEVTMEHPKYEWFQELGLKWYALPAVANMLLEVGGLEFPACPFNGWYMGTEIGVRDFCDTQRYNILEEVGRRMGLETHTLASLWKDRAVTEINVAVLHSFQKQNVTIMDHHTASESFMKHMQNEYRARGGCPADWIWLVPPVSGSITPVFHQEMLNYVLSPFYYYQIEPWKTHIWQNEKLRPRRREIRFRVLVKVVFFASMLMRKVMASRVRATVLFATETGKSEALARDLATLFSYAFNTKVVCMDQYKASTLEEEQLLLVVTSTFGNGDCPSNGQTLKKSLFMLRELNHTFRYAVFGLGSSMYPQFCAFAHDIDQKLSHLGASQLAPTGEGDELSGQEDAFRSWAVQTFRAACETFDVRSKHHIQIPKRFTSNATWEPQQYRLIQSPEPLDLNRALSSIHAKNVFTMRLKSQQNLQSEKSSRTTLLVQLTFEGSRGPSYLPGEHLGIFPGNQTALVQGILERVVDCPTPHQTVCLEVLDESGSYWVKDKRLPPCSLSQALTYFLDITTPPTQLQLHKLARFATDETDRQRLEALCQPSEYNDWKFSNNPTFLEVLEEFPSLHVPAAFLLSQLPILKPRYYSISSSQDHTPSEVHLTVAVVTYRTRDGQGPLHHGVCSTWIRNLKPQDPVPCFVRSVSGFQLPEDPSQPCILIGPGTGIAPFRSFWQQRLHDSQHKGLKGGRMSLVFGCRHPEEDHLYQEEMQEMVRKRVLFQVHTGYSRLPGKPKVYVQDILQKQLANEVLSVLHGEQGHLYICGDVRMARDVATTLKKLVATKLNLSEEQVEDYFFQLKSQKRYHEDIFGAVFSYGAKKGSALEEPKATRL

Melanocortin receptor 5 = Melanocortin receptor 5 (Homo sapiens, UniProt P33032); assay type: cell membranes, HEK293, Membrane; settings: hek293; note: in other assays of this panel Not Active means under 50% inhibition at 10 µM
Melanocortin receptor 5, sequence (P33032 whole entry): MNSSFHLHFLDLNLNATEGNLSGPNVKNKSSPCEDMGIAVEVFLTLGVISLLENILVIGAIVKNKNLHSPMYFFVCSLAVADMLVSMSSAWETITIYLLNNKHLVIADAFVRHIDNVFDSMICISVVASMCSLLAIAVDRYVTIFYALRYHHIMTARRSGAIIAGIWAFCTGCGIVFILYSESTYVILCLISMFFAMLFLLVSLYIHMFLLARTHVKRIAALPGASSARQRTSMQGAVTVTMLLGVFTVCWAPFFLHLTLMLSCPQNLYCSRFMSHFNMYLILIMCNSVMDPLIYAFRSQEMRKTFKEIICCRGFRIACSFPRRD

[2] = DRUGMATRIX: Atrial Natriuretic Factor (ANF) radioligand binding (ligand: [125I] ANF (rat)); assay type: cell membranes, Cavia porcellus, Dunkin-Hartley, Adrenal gland, Membrane; settings: Not Active = under 50% inhibition at 10 µM
[3] = DRUGMATRIX: Platelet-Derived Growth Factor (PDGF) radioligand binding (ligand: [125I] PDGF); assay type: cell-based; settings: nih3t3; Not Active = under 50% inhibition at 10 µM
[4] = molecular target: Sodium-dependent noradrenaline transporter (Homo sapiens, UniProt P23975); assay: DRUGMATRIX: Norepinephrine Transporter radioligand binding (ligand: [125I] RTI-55); assay type: cell membranes, MDCK, Membrane; settings: mdck; Not Active = under 50% inhibition at 10 µM
Sodium-dependent noradrenaline transporter, sequence (P23975 whole entry): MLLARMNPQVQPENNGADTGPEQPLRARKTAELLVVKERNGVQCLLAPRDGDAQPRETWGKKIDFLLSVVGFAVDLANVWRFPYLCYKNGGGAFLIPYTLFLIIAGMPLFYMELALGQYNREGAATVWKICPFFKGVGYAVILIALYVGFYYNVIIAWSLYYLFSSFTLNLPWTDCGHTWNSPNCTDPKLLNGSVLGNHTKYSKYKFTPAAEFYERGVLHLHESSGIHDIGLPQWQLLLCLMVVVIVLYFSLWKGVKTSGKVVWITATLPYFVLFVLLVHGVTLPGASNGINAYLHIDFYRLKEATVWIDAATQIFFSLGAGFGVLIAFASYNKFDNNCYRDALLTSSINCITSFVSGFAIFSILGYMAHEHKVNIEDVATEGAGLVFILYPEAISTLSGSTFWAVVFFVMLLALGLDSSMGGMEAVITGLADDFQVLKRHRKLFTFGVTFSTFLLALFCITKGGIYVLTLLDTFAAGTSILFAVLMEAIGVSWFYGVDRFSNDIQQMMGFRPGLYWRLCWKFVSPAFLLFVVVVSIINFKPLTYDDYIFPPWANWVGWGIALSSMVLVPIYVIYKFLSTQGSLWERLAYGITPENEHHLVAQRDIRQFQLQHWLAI

[5] = molecular target: C-C chemokine receptor type 2 (Homo sapiens, UniProt P41597); assay type: cell membranes, Membrane; settings: cho-k1; note: in other assays of this panel Not Active means under 50% inhibition at 10 µM
C-C chemokine receptor type 2, sequence (P41597 whole entry): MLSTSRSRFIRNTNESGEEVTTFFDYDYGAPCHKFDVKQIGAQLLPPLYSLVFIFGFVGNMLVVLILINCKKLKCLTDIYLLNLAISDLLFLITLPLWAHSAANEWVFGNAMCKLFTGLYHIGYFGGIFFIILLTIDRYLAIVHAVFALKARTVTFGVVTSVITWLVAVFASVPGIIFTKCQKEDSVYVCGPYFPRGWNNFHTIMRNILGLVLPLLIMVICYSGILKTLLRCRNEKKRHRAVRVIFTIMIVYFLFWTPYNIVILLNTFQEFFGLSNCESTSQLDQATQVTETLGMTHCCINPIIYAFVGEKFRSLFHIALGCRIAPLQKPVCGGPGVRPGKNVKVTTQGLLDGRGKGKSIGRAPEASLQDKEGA

[6] = molecular target: Receptor tyrosine-protein kinase erbB-2 (Homo sapiens, UniProt P04626); assay: biochemical; assay type: cell-based, Insect cells; settings: insect cells;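 note: inhibition of HER2 kinase enzyme activity, measured with Poly(Glu:Tyr) as the phosphorylation substrate; in other assays of this panel Not Active means under 50% inhibition at 10 µM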

O=C(O)c1cn(-c2ccc(F)cc2)c2cc(N3CCNCC3)c(F)cc2c1=O [SARAFLOXACIN]
Not Active: IC50 [1] | IC50 (Melanocortin receptor 5) | IC50 [2] | Ki [2] | IC50 [3] | Ki [3] | IC50 [4] | IC50 [5] | IC50 [6]

CO[C@H]1/C=C/O[C@@]2(C)Oc3c(C)c(O)c4c(O)c(c(/C=N/N5CCN(C6CCCC6)CC5)c(O)c4c3C2=O)NC(=O)/C(C)=C\C=C\[C@H](C)[C@H](O)[C@@H](C)[C@@H](O)[C@@H](C)[C@H](OC(C)=O)[C@@H]1C [RIFAPENTINE]
Not Active: IC50 [1] | IC50 (Melanocortin receptor 5) | IC50 [2] | Ki [2] | IC50 [3] | Ki [3] | IC50 [4] | IC50 [5] | IC50 [6]

CCCCOc1cc(CC2CNC(=O)N2)ccc1OC (centres undefined) [RO-201724]
Not Active: IC50 [1] | IC50 (Melanocortin receptor 5) | IC50 [2] | Ki [2] | IC50 [3] | Ki [3] | IC50 [4] | IC50 [5] | IC50 [6]

CC[C@@H](C(=O)[C@@H](C)[C@@H](O)[C@H](C)[C@@H]1O[C@@H]([C@@H](CC)C(=O)O)CC[C@@H]1C)[C@H]1O[C@]2(C=C[C@@H](O)[C@]3(CC[C@@](C)([C@H]4CC[C@](O)(CC)[C@H](C)O4)O3)O2)[C@H](C)C[C@@H]1C [SALINOMYCIN]
Not Active: IC50 [1] | IC50 (Melanocortin receptor 5) | IC50 [2] | Ki [2] | IC50 [3] | Ki [3] | IC50 [4] | IC50 [5] | IC50 [6]

CCCCNc1ccc(C(=O)OCCN(C)C)cc1 [TETRACAINE]
Not Active: IC50 [1] | IC50 (Melanocortin receptor 5) | IC50 [2] | Ki [2] | IC50 [3] | Ki [3] | IC50 [4] | IC50 [5] | IC50 [6]

CCN(CC)CCNC(=O)c1cc(S(C)(=O)=O)ccc1OC [TIAPRIDE]
Not Active: IC50 [1] | IC50 (Melanocortin receptor 5) | IC50 [2] | Ki [2] | IC50 [3] | Ki [3] | IC50 [4] | IC50 [5] | IC50 [6]

MANGANESE CHLORIDE ANHYDROUS
Not Active: IC50 [1] | Ki [1] | IC50 (Melanocortin receptor 5) | Ki (Melanocortin receptor 5) | IC50 [2] | Ki [2] | IC50 [3] | Ki [3] | IC50 [4] | Ki [4] | IC50 [5] | Ki [5] | IC50 [6] | Ki [6]

O.O.O.O.O.O.[Cl-].[Cl-].[Sr+2] [STRONTIUM CHLORIDE HEXAHYDRATE]
Not Active: IC50 [1] | IC50 (Melanocortin receptor 5) | IC50 [2] | Ki [2] | IC50 [3] | Ki [3] | IC50 [4] | IC50 [5] | IC50 [6]

CNC1(c2ccccc2Cl)CCCCC1=O (centres undefined) [KETAMINE]
Not Active: IC50 [1] | IC50 (Melanocortin receptor 5) | IC50 [2] | Ki [2] | IC50 [3] | Ki [3] | IC50 [4] | IC50 [5] | IC50 [6]

CCN(CC)CC(=O)Nc1c(C)cccc1C [LIDOCAINE]
Not Active: IC50 [1] | IC50 (Melanocortin receptor 5) | IC50 [2] | Ki [2] | IC50 [3] | Ki [3] | IC50 [4] | IC50 [5] | IC50 [6]

Nc1cc(N2CCCCC2)nc(N)[n+]1[O-] [MINOXIDIL]
Not Active: IC50 [1] | IC50 (Melanocortin receptor 5) | IC50 [2] | Ki [2] | IC50 [3] | Ki [3] | IC50 [4] | IC50 [5] | IC50 [6]

COc1c2occc2cc2ccc(=O)oc12 [METHOXSALEN]
Not Active: IC50 [1] | IC50 (Melanocortin receptor 5) | IC50 [2] | Ki [2] | IC50 [3] | Ki [3] | IC50 [4] | IC50 [5] | IC50 [6]

Cc1c(C)c2c(c(C)c1O)CCC(C)(CN1CCN(c3cc(N4CCCC4)nc(N4CCCC4)n3)CC1)O2 (centres undefined)
Not Active: IC50 [1] | IC50 (Melanocortin receptor 5) | IC50 [2] | Ki [2] | IC50 [3] | Ki [3] | IC50 [4] | IC50 [5] | IC50 [6]

CS(=O)(=O)c1ccc([C@@H](O)[C@@H](CO)NC(=O)C(Cl)Cl)cc1 [THIAMPHENICOL]
Not Active: IC50 [1] | IC50 (Melanocortin receptor 5) | IC50 [2] | Ki [2] | IC50 [3] | Ki [3] | IC50 [4] | IC50 [5] | IC50 [6]

Clc1ccccc1CN1CCc2sccc2C1 [TICLOPIDINE]
Not Active: IC50 [1] | IC50 (Melanocortin receptor 5) | IC50 [2] | Ki [2] | IC50 [3] | Ki [3] | IC50 [4] | IC50 [5] | IC50 [6]

CCN1CCC[C@H]1CNC(=O)c1cc(S(N)(=O)=O)ccc1OC [LEVOSULPIRIDE]
Not Active: IC50 [1] | IC50 (Melanocortin receptor 5) | IC50 [2] | Ki [2] | IC50 [3] | Ki [3] | IC50 [4] | IC50 [5] | IC50 [6]
